Data as given in US20260125375A1 (Pfizer Inc., priority 2022, published 2026).

Assays:
WT CBL-B (36-427) = molecular target: T1, WT CBL-B (36-427) (Homo sapiens, UniProt Q13191); assay: Surface Plasmon Resonance (SPR) assay, binding affinity and kinetics, CBL-B; settings: SPR at 10° C., biotinylated WT CBL-B (36-427) on streptavidin chip; geometric mean; read-out: CBL-B SPR Kd (nM) GMean
T1 construct: N-terminal biotinylated WT CBL-B (36-427) and C-CBL (46-435) were captured on a streptavidin (SA) coated sensor chip
In short: (§1)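 SPR kinetics at 10° C, run either single-cycle (0.001–1 μM, 3-fold, 6 points, 120 s on, >5400 s off) or multi-cycle (10 points, 2-fold, top 10 or 100 μM, 90 s on). Proteins were N-biotinylated CBL-B (36-427) and C-CBL (46-435) on SA surfaces, in pH 7.2 HEPES, 2% DMSO.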

C-CBL (residues 46-435) = molecular target: T2, C-CBL (residues 46-435) (Homo sapiens, UniProt P22681); assay: Ligand Displacement Assay (LDA), HTRF competitive binding against BODIPY-labeled fluorescent tracer, C-CBL; settings: geometric mean of the number of tests, read-out: C-CBL Ki (nM) GMean
T2 construct: Purified CBL-B (residues 36-427) and C-CBL (residues 46-435) proteins from baculovirus-infected insect cells; made in house; host or cells: baculovirus-infected insect cells
T2 sequence (P22681 46-435): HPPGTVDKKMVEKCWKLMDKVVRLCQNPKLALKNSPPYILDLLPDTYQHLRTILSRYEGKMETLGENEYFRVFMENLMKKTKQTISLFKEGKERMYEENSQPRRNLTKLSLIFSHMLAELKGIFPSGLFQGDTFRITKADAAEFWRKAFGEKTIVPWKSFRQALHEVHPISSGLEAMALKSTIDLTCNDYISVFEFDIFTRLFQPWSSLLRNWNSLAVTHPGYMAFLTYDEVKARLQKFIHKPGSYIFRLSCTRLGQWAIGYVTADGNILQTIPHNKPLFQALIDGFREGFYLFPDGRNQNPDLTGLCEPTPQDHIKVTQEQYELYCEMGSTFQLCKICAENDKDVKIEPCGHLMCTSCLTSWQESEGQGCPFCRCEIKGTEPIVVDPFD
In short: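 Insect-cell (baculovirus) protein, N-term AviTag biotinylated via BirA, captured by SA-Tb; BODIPY tracer, KD measured per protein. 3-fold serial dilutions, duplicate, […], 2% DMSO final. Ki (nM) = geomean of runs.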

C-CBL (46-435) = molecular target: T3, C-CBL (46-435) (Homo sapiens, UniProt P22681); assay: Surface Plasmon Resonance (SPR) assay, binding affinity and kinetics, C-CBL; settings: SPR at 10° C., biotinylated C-CBL (46-435) on streptavidin chip; geometric mean; read-out: C-CBL SPR Kd (nM) GMean
T3 construct: N-terminal biotinylated WT CBL-B (36-427) and C-CBL (46-435) were captured on a streptavidin (SA) coated sensor chip
T3 sequence (P22681 46-435): T2 sequence (P22681 46-435)
In short: as §1

SMILES	Kd (WT CBL-B (36-427))	Ki (C-CBL (residues 46-435))	Kd (C-CBL (46-435))
CC(c1nc(C(F)(F)F)cc2c(-c3cccc(C4(Cc5nncn5C)COC4)c3)n[nH]c12)N1CCC[C@H](C)C1 (single isomer, unassigned) [Example C19]	2.4 nM	61.3 nM	51.3 nM
Cn1cnnc1[C@@H](c1cccc(-c2n[nH]c3cnc(C(F)(F)F)cc23)c1)C1CCC1 [Example A1, 3-{3-[(R)-cyclobutyl(4-methyl-4H-1,2,4-triazol-3-yl)methyl]phenyl}-5-(trifluoromethyl)-1H-pyrazolo[3,4-c]pyridine]	34.6 nM	681 nM	931 nM
CC(c1nc(C(F)(F)F)cc2c(-c3cccc(C4(Cc5nncn5C)COC4)c3)n[nH]c12)N1CCC[C@H](C)C1 (single isomer, unassigned) [Example C20]	1.2 nM	16.9 nM	11.3 nM
C[C@@H](NC1CCCC1)c1nc(C(F)(F)F)cc2c(-c3cccc([C@H](c4nncn4C)C4CCC4)c3)n[nH]c12 (single isomer, unassigned) [Example C11]	0.9 nM	3.7 nM	6.1 nM
C[C@@H](NC1CCC1)c1nc(C(F)(F)F)cc2c(-c3cccc(C4(Cc5nncn5C)COC4)c3)n[nH]c12 [Example C16]	2 nM	49.3 nM	83.4 nM
C[C@H](NC1CC(F)(F)C1)c1nc(C(F)(F)F)cc2c(-c3cccc([C@H](c4nncn4C)C4CCC4)c3)n[nH]c12 (single isomer, unassigned) [Example D90]	6.5 nM	147 nM	77.4 nM
C[C@H](N[C@H]1CCC(F)(F)C1)c1nc(C(F)(F)F)cc2c(-c3cccc(C4(Cc5nncn5C)COC4)c3)n[nH]c12 (single isomer, unassigned) [Example C12]	0.8 nM	1.3 nM	1.8 nM
C[C@H](c1nc(C(F)(F)F)cc2c(-c3cccc(C4(Cc5nncn5C)COC4)c3)n[nH]c12)N1CC[C@@H](F)C1 (single isomer, unassigned) [Example D10]	2.8 nM	25 nM	42 nM
C[C@@H](N[C@H]1C[C@@H](F)C1)c1nc(C(F)(F)F)cc2c(-c3cccc([C@H](c4nncn4C)C4CCC4)c3)n[nH]c12 (single isomer, unassigned) [Example C96]	3.3 nM	53.5 nM	91.2 nM
C[C@H](c1nc(C(F)(F)F)cc2c(-c3cccc(C4(Cc5nncn5C)COC4)c3)n[nH]c12)N1CCO[C@@H](C)C1 (single isomer, unassigned) [Example D12]	6.6 nM	52.9 nM	46 nM
Cn1cnnc1[C@@H](c1cccc(-c2n[nH]c3c(CN[C@H]4CCC[C@@H]4O)nc(C(F)(F)F)cc23)c1)C1CCC1 [Example C4, (1S,2S)-2-({[3-{3-[(R)-cyclobutyl(4-methyl-4H-1,2,4-triazol-3-yl)methyl]phenyl}-5-(trifluoromethyl)-1H-pyrazolo[3,4-c]pyridin-7-yl]methyl}amino)cyclopentan-1-ol]	2.1 nM	47.4 nM	49.9 nM
CC1CN(Cc2nc(C(F)(F)F)cc3c(-c4cccc(C5(Cc6nncn6C)COC5)c4)n[nH]c23)CCC1(F)F (single isomer, unassigned) [Example C32, 7-{[(3ξ)-4,4-difluoro-3-methylpiperidin-1-yl]methyl}-3-(3-{3-[(4-methyl-4H-1,2,4-triazol-3-yl)methyl]oxetan-3-yl}phenyl)-5-(trifluoromethyl)-1H-pyrazolo[3,4-c]pyridine]	0.8 nM	55.6 nM	42.6 nM
CC(C)NC(C)c1nc(C(F)(F)F)cc2c(-c3cccc([C@H](c4nncn4C)C4CCC4)c3)n[nH]c12 (single isomer, unassigned) [Example C34]	5.2 nM	88.5 nM	172 nM
C[C@@H](N[C@@H]1CCOC1)c1nc(C(F)(F)F)cc2c(-c3cccc([C@H](c4nncn4C)C4CCC4)c3)n[nH]c12 (single isomer, unassigned) [Example D3]	4 nM	69.7 nM	124 nM
C[C@@H](N[C@H]1CCC(F)(F)C1)c1nc(C(F)(F)F)cc2c(-c3cccc([C@H](c4nncn4C)C4CCC4)c3)n[nH]c12 [Example C9]	3.1 nM	85.2 nM	22.1 nM
C[C@@H](N[C@H]1CC[C@@H]1O)c1nc(C(F)(F)F)cc2c(-c3cccc([C@H](c4nncn4C)C4CCC4)c3)n[nH]c12 (single isomer, unassigned) [Example D22]	1.5 nM	5.8 nM	9.8 nM
CC(NC1CNC1)c1nc(C(F)(F)F)cc2c(-c3cccc(C4(Cc5nncn5C)COC4)c3)n[nH]c12 (single isomer, unassigned) [Example C28, N-{(1ξ)-1-[3-(3-{3-[(4-methyl-4H-1,2,4-triazol-3-yl)methyl]oxetan-3-yl}phenyl)-5-(trifluoromethyl)-1H-pyrazolo[3,4-c]pyridin-7-yl]ethyl}azetidin-3-amine]	17.3 nM	114 nM	125 nM
C[C@@H](NC1CC(F)(F)C1)c1nc(C(F)(F)F)cc2c(-c3cccc([C@H](c4nncn4C)C4CCC4)c3)n[nH]c12 (single isomer, unassigned) [Example D91]	6.3 nM	66.8 nM	35.4 nM
